Assay [1] deals with α-glucosidase. To be noted: read-out: IC50; cited from earlier work.
The target of assay [2] is T1, α-glucosidase (Saccharomyces cerevisiae, UniProt P53341).
T1 construct: purchased Shanghai Yuanye Biotechnology Co., Shanghai, China Lot No. M23HS178879 (catalogue number not given)
Description: CD spectroscopy, secondary structure of α-glucosidase (BeStSel). To be noted: for β-turn: free enzyme 11.7; for β-sheet: free enzyme 28.8; for random coil: free enzyme 45.2; for α-helix: free enzyme 14.4. On the procedure: CD spectra in the far-UV region (190–250 nm) were scanned by using a CD spectrometer (JASCO-1.5 Tokyo, Japan). […] The slit width was set to 1 nm, and the baseline was calibrated with PBS (phosphate buffered saline). CD spectra were averaged over three scans under a constant nitrogen flow, with the buffer signal subtracted. The results were analyzed using the BeStSel database (https://bestsel.elte.hu/index.php, accessed on 16 May 2025).

Assay [3] addresses T1, α-glucosidase. The assay is described as follows: Mixture effects of flavonoid combinations on α-glucosidase. To be noted: calculated from the dose–response curve. Type of assay: biochemical. How it is done: (§1) The α-glucosidase inhibitory effects of flavonoids were evaluated as in a previous report with slight modifications (including changes in the concentrations of the enzyme, substrate, and Na2CO3). Briefly, 50 μL of phosphate-buffered saline (PBS, 0.1 M, pH 6.8), the test compound, and α-glucosidase (0.2 U/mL) were preincubated in a 96-well plate at 37 °C for 10 min. The reaction was then initiated by adding 50 μL of 5 mM pNPG as the substrate. Subsequently, the 96-well plate was incubated for an additional 30 min at 37 °C, then 50 μL of 0.2 M Na2CO3 was added to terminate the reaction. Absorbance was measured at under 405 nm.
The inhibitory activity of the composition was evaluated using the same method described in Section 3.2. […] The combination index (CI, Formula (3)) was subsequently used to assess the interactions between the compounds [60].(2) Y=Bottom+Top−Bottom/1+10^^((LogIC50−X)×HillSlope)
In Formula (3), (D)j represents the concentration of component j in the mixture needed to achieve an effect of x, while (Dx)j denotes the concentration of component j required to produce the same effect when acting alone. Here, x refers to the inhibition rate produced by the composition, and n indicates the number of individual compounds in the composition.

A further assay deals with normal C57BL/6J mice. Description: Oral sucrose test, postprandial blood glucose. It counts as in vivo. To be noted: for Blood glucose levels: 30 min after sucrose 4 g/kg, n = 8, in mmol/L (unit assumed); for Rate of blood glucose reduction: vs model group, 30 min after sucrose. An excerpt:
Male C57BL/6J mice of SPF grade, aged 6–8 weeks and weighing 18–22 g, were obtained from the Experimental Animal Science Department of Peking University. The mice were housed in a controlled environment with a 12:12 light/dark cycle and a constant temperature. They were provided with standard pellet feed and given free access to drinking water. To ensure acclimatization, the mice were allowed to adjust to the diet and housing conditions for one week prior to the experiment. All animal experiments were performed in compliance with the relevant laws and institutional guidelines for the care and use of laboratory animals in China. The experiments were approved by the Laboratory Animal Management and Ethics Committee of Peking University (LA2021443). Additionally, the certification number for the laboratory animal personnel is 1120111300011.
The 16 flavonoids were subsequently evaluated for their potential antihyperglycemic effects by using the oral sucrose test, which is commonly used to evaluate intestinal α-glucosidase inhibition in vivo [62]. Normal C57BL/6J mice were randomly divided into model groups and the 16 flavonoid compound groups (n = 8 per group), respectively. The flavonoids at different concentrations were suspended in 0.5% sodium carboxymethyl cellulose (CMC-Na). […] Fifteen minutes after drug administration, the mice were given a sucrose solution (4 g/kg). Blood samples were collected from the tail vein at 30 min after sucrose loading, and blood glucose levels were measured using an Accu-Chek Performa glucometer (Roche Diagnostics, SN: 79508621393, Shanghai, China). The rate of blood glucose reduction was calculated using the following Formula (4):(4) The rate of blood glucose reduction%=the model blood glucose-the sample blood glucose/the model blood glucose×100%

Assay [4] addresses T2, Saccharomyces cerevisiae α-glucosidase (Saccharomyces cerevisiae, UniProt P53341).
T2 construct: purchased Shanghai Yuanye Biotechnology Co., Shanghai, China Lot No. M23HS178879 (catalogue number not given)
The assay is described as follows: biochemical. To be noted: 5 mM pNPG, PBS pH 6.8, 37 °C. How it is done:
as §1

For assay [5], the target named is T1, α-glucosidase. Description: biochemical. It counts as binding. To be noted: for binding to α-glucosidase (SPR): result in words. How it is done: SPR analysis was performed using the Biacore 8K system (GE Healthcare, Uppsala, Sweden). α-Glucosidase (0.05 mg/mL) was fixed on the CM5 sensor chip by an amine coupling kit. Subsequently, various concentrations of the 16 flavonoids dissolved in 5% DMSO were continuously injected onto the surface of α-glucosidase coated surface. After each sample injection, the sensor chip surface was washed and regenerated with running buffer (PBS) at a flow rate of 30 µL/min. According to the 1:1 Langmuir model, the equilibrium dissociation constant (KD) was calculated by the Biacore evaluation software. For sensorgrams without significant kinetic features, the KD values were calculated using the steady-state analysis.

Assay [6] addresses T1, α-glucosidase. The assay is described as follows: Inhibitory kinetic analysis (Lineweaver–Burk plot). It counts as biochemical. To be noted: Lineweaver–Burk plots, pNPG 0.31–20 mM. On the procedure: The type of inhibition was determined by using the kinetics curve and the Lineweaver–Burk plot. […] These compounds were incubated with α-glucosidase at 37 °C for 30 min. After incubation, various concentrations of pNPG (0.31–20 mM) were added, and absorbance was measured at 405 nm. The Lineweaver–Burk plot was obtained by plotting 1/[S] on the x-axis and 1/v on the y-axis, where [S] represents substrate concentration and v represents the reaction velocity.

Where [7] appears, read: molar ratio 10:1, α-glucosidase 4 μM.
The mark [8] stands for this setting: molar ratio 40:1, α-glucosidase 4 μM.
[9] abbreviates: molar ratio compound:α-glucosidase 10:1, α-glucosidase 4 μM.

These results are taken from article PMC12114633, “α-Glucosidase Inhibition Mechanism and Anti-Hyperglycemic Effects of Flavonoids from Astragali Radix and Their Mixture Effects” (Pharmaceuticals, 2025).

Like-named read-outs stand apart in the source and are kept apart here.

What is called IC50 is the concentration needed to halve the response being measured. Broadly, the Kd is a measure of binding affinity in units of concentration.

T2 sequence (P53341 whole entry): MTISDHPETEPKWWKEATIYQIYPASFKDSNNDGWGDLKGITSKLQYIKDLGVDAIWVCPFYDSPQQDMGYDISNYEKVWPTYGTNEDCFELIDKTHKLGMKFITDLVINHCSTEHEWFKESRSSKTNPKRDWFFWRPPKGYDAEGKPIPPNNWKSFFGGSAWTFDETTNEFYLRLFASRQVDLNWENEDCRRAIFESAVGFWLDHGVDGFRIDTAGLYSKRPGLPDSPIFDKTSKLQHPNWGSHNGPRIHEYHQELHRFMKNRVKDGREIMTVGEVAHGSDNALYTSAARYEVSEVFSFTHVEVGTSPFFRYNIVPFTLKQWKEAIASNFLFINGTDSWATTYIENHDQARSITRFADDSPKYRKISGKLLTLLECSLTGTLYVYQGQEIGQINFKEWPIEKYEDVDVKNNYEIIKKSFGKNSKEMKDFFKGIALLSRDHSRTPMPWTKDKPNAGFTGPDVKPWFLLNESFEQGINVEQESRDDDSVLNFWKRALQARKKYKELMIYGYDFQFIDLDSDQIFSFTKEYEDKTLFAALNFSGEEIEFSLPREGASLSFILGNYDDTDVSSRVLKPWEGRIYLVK
T1 sequence (P53341 whole entry): as above

With `CC(=O)Cc1cc(=O)c2c(C)cc(O)c([C@@H]3O[C@H](CO)[C@@H](O)[C@H](O)[C@H]3OC(=O)/C=C/c3ccc(O)cc3)c2o1` [Aloeresin A, reference compound], the IC50 on α-glucosidase [1] is 11900 µM.

Turning to `O=C1C[C@@H](c2ccc(O)cc2)Oc2cc(O)ccc21` [C3, liquiritigenin], at α-glucosidase [2] (setting [7]), the β-turn is given as 14.2%, the β-sheet was found to be 18.0% and the random coil was found to be 56.1%. For the same molecule, on α-glucosidase [2] (setting [8]), the β-turn came out at 16.2%, the α-helix is on record as 8.00%, the β-sheet is 16.6% and the random coil amounted to 59.2%. Also, the α-helix on α-glucosidase [2] (setting [9]) is 11.7%. For the same molecule, on α-glucosidase [3], the IC05 was 13.71 µM. Also, in the assay with normal C57BL/6J mice (10 mg/kg oral), the Blood glucose levels was determined as 14.06 ± 1.45 and the “Rate of blood glucose reduction” value is -0.90%. For the same molecule, in the assay with normal C57BL/6J mice (50 mg/kg oral), the Blood glucose levels was 13.19 ± 1.35 and the “Rate of blood glucose reduction” value is listed as 5.38%. Besides, in the assay with normal C57BL/6J mice (100 mg/kg oral), the Blood glucose levels is 11.58 ± 1.23 and the “Rate of blood glucose reduction” value is given as 16.95%. Besides, the IC50 in assay [4] (IC50, α-glucosidase 0.2 U/mL) is 161 ± 36.3 µM. For the same molecule, at α-glucosidase [5], the Kd is above 2000 µM and the “binding to α-glucosidase (SPR)” value is recorded as “did not show binding”. Besides, the “type of inhibition on α-glucosidase” value at α-glucosidase [6] was “non-competitive inhibitors”.

For `O=C(/C=C/c1ccc(O)cc1)c1ccc(O)cc1O` [C4, isoliquiritigenin], on α-glucosidase [2] (setting [7]), the β-turn is 11.7%, the β-sheet is reported as 31.0% and the random coil stood at 42.3%. At α-glucosidase [2] (setting [8]), the β-turn was determined as 12.1%, the α-helix is given as 14.1%, the β-sheet was 24.1% and the random coil is listed as 49.7%. For the same molecule, the α-helix on α-glucosidase [2] (setting [9]) is on record as 15.0%. Further, on α-glucosidase [3], the IC05 is 9.73 µM and the “IC15 (concentration corresponding to a 15% inhibition rate)” value is 20 µM. In addition, in the assay on normal C57BL/6J mice (10 mg/kg oral), the Blood glucose levels is 12.81 ± 1.00 and the “Rate of blood glucose reduction” value worked out at 8.07%. For the same molecule, in the assay with normal C57BL/6J mice (50 mg/kg oral), the Blood glucose levels is given as 13.05 ± 1.44 and the “Rate of blood glucose reduction” value is given as 6.37%. In addition, in the assay with normal C57BL/6J mice (250 mg/kg oral), the Blood glucose levels was 11.90 ± 0.62 and the “Rate of blood glucose reduction” value is 14.62%. Moreover, the IC50 in assay [4] (IC50, α-glucosidase 0.2 U/mL) worked out at 69.1 ± 10.7 µM. At α-glucosidase [5], the Kd is above 2000 µM and the “binding to α-glucosidase (SPR)” value is reported as “did not show binding”. Besides, the “type of inhibition on α-glucosidase” value on α-glucosidase [6] was “mixed-type inhibitors”.

In the case of `COc1ccc(C2COc3cc(O)ccc3C2)c(O)c1OC` (stereo not shown) [C17, isomucronulatol], at α-glucosidase [2] (setting [7]), the β-turn turned out to be 11.7%, the β-sheet came out at 24.3% and the random coil is 49.4%. Moreover, on α-glucosidase [2] (setting [8]), the β-turn came out at 13.6%, the α-helix was determined as 17.4%, the β-sheet is recorded as 31.3% and the random coil stood at 37.8%. Moreover, the α-helix at α-glucosidase [2] (setting [9]) came out at 14.6%. In the assay on normal C57BL/6J mice (10 mg/kg oral), the Blood glucose levels amounted to 14.46 ± 0.69 and the “Rate of blood glucose reduction” value worked out at 6.32%. For the same molecule, in the assay with normal C57BL/6J mice (50 mg/kg oral), the Blood glucose levels amounted to 14.29 ± 0.80 and the “Rate of blood glucose reduction” value worked out at 7.45%. Besides, in the assay on normal C57BL/6J mice (100 mg/kg oral), the Blood glucose levels was found to be 13.24 ± 1.18 and the “Rate of blood glucose reduction” value was 14.25%. For the same molecule, in assay [4] (IC50, α-glucosidase 0.2 U/mL), inhibition was half-maximal at 354 ± 40.4 µM (IC50). On α-glucosidase [5], the Kd was above 2000 µM and the “binding to α-glucosidase (SPR)” value was “did not show binding”. Moreover, the “type of inhibition on α-glucosidase” value at α-glucosidase [6] is “mixed-type inhibitors”.

In the case of `COc1ccc2c(c1OC)OC1c3ccc(O[C@@H]4O[C@H](CO)[C@@H](O)[C@H](O)[C@H]4O)cc3OCC21` (stereo partly shown) [C19, astrapterocarpan-3-O-glucoside], at α-glucosidase [2] (setting [7]), the β-turn is 10.7%, the β-sheet worked out at 26.7% and the random coil is recorded as 39.9%. Further, at α-glucosidase [2] (setting [8]), the β-turn is recorded as 10.2%, the α-helix is given as 43.2%, the β-sheet came to 6.70% and the random coil is 39.9%. The α-helix at α-glucosidase [2] (setting [9]) is recorded as 22.6%. Moreover, the IC05 on α-glucosidase [3] was 82.58 µM. In the assay with normal C57BL/6J mice (1 mg/kg oral), the Blood glucose levels came to 14.30 ± 1.16 and the “Rate of blood glucose reduction” value worked out at 7.37%. Besides, in the assay on normal C57BL/6J mice (10 mg/kg oral), the Blood glucose levels is listed as 13.71 ± 0.78 and the “Rate of blood glucose reduction” value was 11.17%. In the assay with normal C57BL/6J mice (100 mg/kg oral), the Blood glucose levels stood at 13.31 ± 0.58 and the “Rate of blood glucose reduction” value is 13.77%. Also, the IC50 in assay [4] (α-glucosidase 0.2 U/mL, read-out: IC50) stood at 348 ± 32.4 µM. For the same molecule, the Kd at α-glucosidase [5] (kinetic model (1:1 Langmuir), read-out: KD) stood at 30 µM. For the same molecule, the “type of inhibition on α-glucosidase” value at α-glucosidase [6] was “non-competitive inhibitors”.

`Oc1ccc([C@H]2COc3cc(O)ccc3C2)cc1` [C29, equol]: on α-glucosidase [2] (setting [7]), the β-turn was determined as 14.5%, the β-sheet is given as 23.5% and the random coil was 51.1%. Further, at α-glucosidase [2] (setting [8]), the β-turn was 13.2%, the α-helix was 8.50%, the β-sheet came to 23.4% and the random coil came out at 55.0%. Also, on α-glucosidase [2] (setting [9]), the α-helix came to 10.9%. Further, in the assay on normal C57BL/6J mice (10 mg/kg oral), the Blood glucose levels was found to be 14.70 ± 1.36 and the “Rate of blood glucose reduction” value was 8.20%. In the assay with normal C57BL/6J mice (50 mg/kg oral), the Blood glucose levels was 13.93 ± 0.62 and the “Rate of blood glucose reduction” value is 13.04%. For the same molecule, in the assay with normal C57BL/6J mice (100 mg/kg oral), the Blood glucose levels worked out at 12.56 ± 1.87 and the “Rate of blood glucose reduction” value was found to be 21.55%. Also, the 50% inhibitory concentration (IC50) in assay [4] (IC50, α-glucosidase 0.2 U/mL) was found to be 131 ± 7.65 µM. In addition, on α-glucosidase [5], binding was put at a Kd of 849 µM. In addition, the “type of inhibition on α-glucosidase” value on α-glucosidase [6] is on record as “mixed-type inhibitors”.

In the case of aquilarixanthone [reference compound], at α-glucosidase [1], the IC50 was 678 µM.
